Target: T1, glucocorticoid receptor (GR) (Homo sapiens, UniProt P04150)
T1 sequence (P04150 1-777): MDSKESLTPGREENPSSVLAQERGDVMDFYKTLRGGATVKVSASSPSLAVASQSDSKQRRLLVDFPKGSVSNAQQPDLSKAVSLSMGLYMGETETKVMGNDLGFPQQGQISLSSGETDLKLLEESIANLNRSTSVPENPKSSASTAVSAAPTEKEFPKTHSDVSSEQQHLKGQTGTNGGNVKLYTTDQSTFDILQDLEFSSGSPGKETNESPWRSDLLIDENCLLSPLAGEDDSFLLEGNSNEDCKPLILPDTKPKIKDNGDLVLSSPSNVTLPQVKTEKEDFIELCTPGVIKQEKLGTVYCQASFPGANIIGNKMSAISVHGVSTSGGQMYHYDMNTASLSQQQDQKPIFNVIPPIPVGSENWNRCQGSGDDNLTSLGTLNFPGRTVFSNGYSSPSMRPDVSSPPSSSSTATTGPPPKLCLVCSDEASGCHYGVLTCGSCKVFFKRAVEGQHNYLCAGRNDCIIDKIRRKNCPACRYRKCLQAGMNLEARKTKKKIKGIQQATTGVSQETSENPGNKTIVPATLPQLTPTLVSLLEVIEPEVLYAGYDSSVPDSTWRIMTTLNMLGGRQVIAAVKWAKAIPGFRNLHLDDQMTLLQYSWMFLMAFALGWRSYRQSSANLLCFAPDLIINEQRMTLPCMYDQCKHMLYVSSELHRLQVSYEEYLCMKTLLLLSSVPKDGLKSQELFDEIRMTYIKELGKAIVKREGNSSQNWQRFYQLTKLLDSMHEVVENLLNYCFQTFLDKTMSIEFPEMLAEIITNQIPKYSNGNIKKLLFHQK
Assay: Affinity for the glucocorticoid receptor
Format: binding

O=C1OCc2cc(NC(=O)C(O)(CC3(c4cc(C(F)(F)F)ccc4F)CC3)C(F)(F)F)ccc21 (single isomer, unassigned; (+)) [((+)-1), (+)-5-{2-hydroxy-3-[1-(2-fluoro-5-trifluoromethylphenyl)-cyclopropyl]-2-trifluoromethyl-propionylamino}-phthalide]
Affinity for the glucocorticoid receptor (GR): very high affinity

From US7388006B2, “Non-steroidal progesting” (Bayer Schering Pharma AG, priority 2002, dated 2008)
